US9402847B2, “Combinations comprising (S)-4-amino-N-(1-(4-chlorophenyl)-3-hydroxypropyl)-1-(7H-pyrrolo[2,3-d]pyrimidin-4-yl)piperidine-4-carboxamide” (AstraZeneca AB, priority 2011, dated 2016)

Columns and labels:
[1] = system: HCC-1187 breast cancer xenografts; test: HCC-1187 breast cancer xenografts in nude mice, tumour volume by calipers; type: in vivo; conditions: for efficacy of combination versus docetaxel monotherapy: AZD5363 300 mg/kg once daily, 4 days on, 3 days off, 3 weekly cycles
Method: In these experiments the indicated agent(s) where being administered in 2 weekly dosage cycles, then there was no dosing in the 3rd week (days 15-21 inclusive). The indicated agent(s) were again administered in further weekly dosage cycles from week 4 onwards.
Animals were dosed with compounds over a 3 week period (3 weekly cycles of docetaxel and 3 weekly cycles of AZD5363 300 mg/kg once daily, 4 days on, 3 days off). […] Following the 3 weekly cycles of treatment, animals were not treated with compound, and recovery of tumour growth was monitored.
(§1) Tumour cells were implanted subcutaneously into the flank of nude mice, then a tumour was allowed to grow in each mouse until it reached the desired starting volume for the particular experiment (approximately 0.6 cm^3 for the BT474c experiment, and approximately 0.15 cm^3 for the HCC-1187 experiment). The mice were then randomised into groups—each group destined to receive one of the four treatment regimes described in each of FIGS. 1 and 2. The mice were then dosed as described in FIGS. 1 and 2, where docetaxel was administered intravenously, and Compound (I) (as the free base) was administered orally. Calipers were used to monitor tumour sizes during these experiments, and the results are plotted on the graphs of FIGS. 1 and 2.
(§2) The BT-474 tumour cell line (human mammary carcinoma) was obtained from Dr Jose Baselga (at Laboratorio Recerca Oncologica, Paseo Vall D'Hebron 119-129, Barcelona 08035, Spain). This cell line was subcloned and a certain population referred herein to as BT474c was obtained. The HCC-1187 cell line is available from ATCC (www.atcc.org).

BT474c model = test: BT474c tumour xenograft in nude mice, tumour volume by calipers; type: in vivo
Method: as §1, §2

NC1(C(=O)N[C@@H](CCO)c2ccc(Cl)cc2)CCN(c2ncnc3[nH]ccc23)CC1 [Compound (I), (S)-4-amino-N-(1-(4-chlorophenyl)-3-hydroxypropyl)-1-(7H-pyrrolo[2,3-d]pyrimidin-4-yl)piperidine-4-carboxamide]
antitumour activity, intermittent versus continuous schedule of Compound (I) ([1]; FIG. 2, HCC-1187 model, 55-day period, in combination with weekly cycles of docetaxel): similarly sustained antitumour activity | efficacy of combination versus docetaxel monotherapy ([1]; FIG. 3, docetaxel administered 24 hours after the final dose of AZD5363): antagonistic | efficacy of combination versus docetaxel monotherapy ([1]; FIG. 3, docetaxel dosed 1 hour (same day) before first administration of AZD5363): greater efficacy than docetaxel monotherapy | efficacy of combination versus docetaxel monotherapy ([1]; FIG. 3, docetaxel dosed 24 hours (day before) before first administration of AZD5363): greater efficacy than docetaxel monotherapy | tumour growth delay after the 3 weekly cycles of treatment ([1]; FIG. 3, docetaxel administered 1 hour before AZD5363, compared with the other schedules investigated): longest tumour growth delay | sensitisation to docetaxel (BT474c model; BT474c model, single dose of docetaxel): greatly sensitise | effect at regulating tumour volume, combination compared with either component alone (BT474c model; Compound (I) in combination with docetaxel): more than an additive effect | change in tumour volume (BT474c model; FIG. 1, BT474c model, 16-day period, Compound (I) free base orally in combination with docetaxel intravenously): significant tumour shrinkage
